Active and inactive are the calls of the source. The calls are words filed in the database; no cut-off is given here.
Legend:
[1] = target: T1, Prostaglandin G/H synthase 2 (Homo sapiens, UniProt P35354); assay: Inhibition of COX-2 in human whole blood assessed as inhibition of LPS-induced plasma PGE2 level by radioimmunoassay
T1 sequence (P35354 whole entry): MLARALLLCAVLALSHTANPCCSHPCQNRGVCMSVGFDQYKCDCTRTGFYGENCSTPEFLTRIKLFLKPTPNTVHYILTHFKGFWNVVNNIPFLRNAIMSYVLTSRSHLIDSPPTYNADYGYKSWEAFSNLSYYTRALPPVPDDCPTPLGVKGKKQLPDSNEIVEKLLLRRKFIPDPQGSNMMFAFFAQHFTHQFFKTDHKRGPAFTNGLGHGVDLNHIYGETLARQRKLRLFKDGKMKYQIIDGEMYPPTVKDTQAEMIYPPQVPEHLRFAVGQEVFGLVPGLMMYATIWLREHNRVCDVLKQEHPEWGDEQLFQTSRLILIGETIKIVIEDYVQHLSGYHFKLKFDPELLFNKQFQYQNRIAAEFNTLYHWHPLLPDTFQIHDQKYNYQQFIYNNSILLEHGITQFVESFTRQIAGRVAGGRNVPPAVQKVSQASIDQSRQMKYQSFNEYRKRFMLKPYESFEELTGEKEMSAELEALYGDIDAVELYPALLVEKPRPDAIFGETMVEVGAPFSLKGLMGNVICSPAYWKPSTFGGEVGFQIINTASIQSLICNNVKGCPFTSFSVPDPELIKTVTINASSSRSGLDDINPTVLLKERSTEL

[2] = target: COX-1/COX-2 (Homo sapiens) (UniProt P35354+P23219); assay: Selectivity ratio of IC50 for COX-2 in human whole blood to COX-1 in human whole blood; format: tissue-based
COX-1/COX-2 (Homo sapiens), sequence (P23219 whole entry, looked up, one chain of several): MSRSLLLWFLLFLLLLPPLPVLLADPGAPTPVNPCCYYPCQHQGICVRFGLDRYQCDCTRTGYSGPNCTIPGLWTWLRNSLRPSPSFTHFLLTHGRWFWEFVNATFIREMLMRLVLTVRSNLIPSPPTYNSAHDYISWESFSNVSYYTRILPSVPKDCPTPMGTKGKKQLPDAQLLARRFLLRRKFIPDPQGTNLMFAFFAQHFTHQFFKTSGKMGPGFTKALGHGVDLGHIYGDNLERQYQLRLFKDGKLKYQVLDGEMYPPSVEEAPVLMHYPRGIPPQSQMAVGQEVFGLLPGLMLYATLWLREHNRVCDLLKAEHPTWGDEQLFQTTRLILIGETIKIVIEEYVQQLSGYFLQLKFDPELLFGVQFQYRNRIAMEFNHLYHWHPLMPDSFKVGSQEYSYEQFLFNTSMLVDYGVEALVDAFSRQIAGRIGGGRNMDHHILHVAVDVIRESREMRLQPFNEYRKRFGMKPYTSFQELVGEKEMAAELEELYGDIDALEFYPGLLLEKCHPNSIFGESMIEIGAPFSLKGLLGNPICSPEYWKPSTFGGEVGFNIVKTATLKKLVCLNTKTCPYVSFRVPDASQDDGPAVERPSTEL

[3] = target: T2, Prostaglandin G/H synthase 1 (Homo sapiens, UniProt P23219); assay: Inhibition of COX-1 in human whole blood assessed as inhibition of serum TXB2 level after 1 hr by radioimmunoassay
T2 sequence (P23219 whole entry): as the sequence (P23219 whole entry, looked up, one chain of several) above

[4] = target: T2, Prostaglandin G/H synthase 1; assay: Inhibition of COX-1 (unknown origin) in platelet rich plasma assessed as inhibition of collagen-induced platelet aggregation at 30 uM incubated for 5 mins prior to collagen challenge measured for 5 mins by aggregometric analysis relative to vehicle-treated control
[5] = target: T2, Prostaglandin G/H synthase 1; assay: Reversible inhibition of COX-1 in human THP1 cells assessed as inhibition of arachidonic acid-induced TXB2 formation at 100 uM incubated for 30 mins followed by compound washout measured 30 mins post arachidonic acid challenge by radioimmunoassay; format: cell-based; conditions: THP-1
[6] = target: T2, Prostaglandin G/H synthase 1; assay: Inhibition of COX-1 (unknown origin) in platelet rich plasma assessed as inhibition of arachidonic acid-induced platelet aggregation at 30 uM incubated for 5 mins prior to arachidonic acid challenge measured for 5 mins by aggregometric analysis relative to vehicle-treated control
[7] = target: T2, Prostaglandin G/H synthase 1; assay: Inhibition of COX-1 in human washed platelet assessed as rightward shift in 10 uM arachidonic acid-induced TXB2 formation at 0.01 to 100 uM incubated for 25 mins prior to arachidonic acid challenge measured after 30 mins by radioimmunoassay
[8] = target: T2, Prostaglandin G/H synthase 1; assay: Inhibition of COX-1 (unknown origin) in platelet rich plasma assessed as inhibition of arachidonic acid-induced TXB2 formation incubated for 5 mins prior to arachidonic acid challenge measured for 5 mins by aggregometric analysis
[9] = target: T3, Prostaglandin G/H synthase 2 (Homo sapiens) (UniProt P35354); assay: Inhibition of COX-2 in human whole blood assessed as inhibition of LPS-induced plasma PGE2 level at 1000 uM by radioimmunoassay relative to control
T3 sequence (whole entry): T1 sequence (P35354 whole entry)

[10] = target: T2, Prostaglandin G/H synthase 1; conditions: at 0.01 to 100 µM
[11] = target: T2, Prostaglandin G/H synthase 1; assay: Inhibition of COX-1 (unknown origin) in platelet rich plasma assessed as inhibition of collagen-induced TXB2 formation incubated for 5 mins prior to collagen challenge measured for 5 mins by aggregometric analysis
[12] = target: T2, Prostaglandin G/H synthase 1; assay: Inhibition of COX-1 in human THP1 cells assessed as inhibition of arachidonic acid-induced TXB2 formation at 100 uM incubated for 30 mins prior to arachidonic acid challenge measured after 30 mins by radioimmunoassay relative to vehicle-treated control; format: cell-based; conditions: THP-1
[13] = target: Prostaglandin G/H synthase 2 (Homo sapiens) (UniProt P35354); assay: Inhibition of COX-2 in human MDA-MB-231 cells assessed as inhibition of arachidonic acid-induced PGE2 formation at 100 uM incubated for 30 mins prior to arachidonic acid challenge measured after 30 mins by radioimmunoassay relative to vehicle-treated control
[14] = Binding affinity to human alpha1-acid glycoprotein by HPLC analysis relative to control; format: ADME; conditions: pooled result: one value given for 2 cell lines, strains, targets or settings
[15] = target: T2, Prostaglandin G/H synthase 1; assay: Inhibition of COX-1 in human washed platelet assessed as inhibition of 10 uM arachidonic acid-induced TXB2 formation at 0.01 to 100 uM incubated for 25 mins prior to arachidonic acid challenge measured after 30 mins by radioimmunoassay
[16] = target: T2, Prostaglandin G/H synthase 1; assay: Irreversible inhibition of COX-1 in human THP1 cells assessed as inhibition of arachidonic acid-induced TXB2 formation at 100 uM incubated for 30 mins followed by compound washout measured 30 mins post arachidonic acid challenge by radioimmunoassay; format: cell-based; conditions: THP-1
Mus musculus [17] = species: Mus musculus; assay: Antithrombotic activity in LDLR-/- C57BL/6 mouse assessed as reduction of 11-dehydro-TXB2 level in urine at 30 mg/L after 18 weeks relative to vehicle-treated control; format: functional; set-up: scale not given: the % may be the effect or the level left
Homo sapiens = assay: Antithrombotic activity in human assessed as reduction of 11-dehydro-TXB2 level in urine at 100 mg/day administered 6 days measured for 24 hrs post last dose relative to vehicle-treated control; format: functional; set-up: scale not given: the % may be the effect or the level left
[18] = target: T2, Prostaglandin G/H synthase 1; assay: Inhibition of COX-1 (unknown origin) in platelet rich plasma assessed as inhibition of arachidonic acid-induced platelet aggregation at 10 uM incubated for 5 mins prior to arachidonic acid challenge measured for 5 mins by aggregometric analysis relative to vehicle-treated control
[19] = target: T2, Prostaglandin G/H synthase 1; assay: Inhibition of COX-1 (unknown origin) in platelet rich plasma assessed as inhibition of arachidonic acid-induced platelet aggregation up to 3 uM incubated for 5 mins prior to arachidonic acid challenge measured for 5 mins by aggregometric analysis
[20] = target: T2, Prostaglandin G/H synthase 1; assay: Inhibition of COX-1 (unknown origin) in platelet rich plasma assessed as inhibition of collagen-induced platelet aggregation up to 3 uM incubated for 5 mins prior to collagen challenge measured for 5 mins by aggregometric analysis
[21] = target: Prostaglandin G/H synthase 2 (Homo sapiens) (UniProt P35354); assay: Reversible inhibition of COX-2 in human MDA-MB-231 cells assessed as inhibition of arachidonic acid-induced PGE2 formation at 100 uM incubated for 30 mins followed by compound washout measured 30 mins post arachidonic acid challenge by radioimmunoassay
[22] = target: T2, Prostaglandin G/H synthase 1; assay: Inhibition of COX-1 (unknown origin) in platelet rich plasma assessed as inhibition of collagen-induced platelet aggregation incubated for 5 mins prior to collagen challenge measured for 5 mins by aggregometric analysis
[23] = target: T2, Prostaglandin G/H synthase 1; assay: Inhibition of COX-1 (unknown origin) in platelet rich plasma assessed as inhibition of collagen-induced platelet aggregation at 10 uM incubated for 5 mins prior to collagen challenge measured for 5 mins by aggregometric analysis relative to vehicle-treated control
[24] = target: Prostaglandin G/H synthase 2 (Homo sapiens) (UniProt P35354); assay: Irreversible inhibition of COX-2 in human MDA-MB-231 cells assessed as inhibition of arachidonic acid-induced PGE2 formation at 100 uM incubated for 30 mins followed by compound washout measured 30 mins post arachidonic acid challenge by radioimmunoassay
Mus musculus [25] = assay: Antithrombotic activity in C57BL/6 mouse assessed as reduction of 6-keto-PGF1alpha level in urine at 20 mg/kg, po administered 3 days measured for 24 hrs post third dose; format: functional, organism-based; set-up: dose 20 mg/kg
Mus musculus [26] = assay: Antithrombotic activity in C57BL/6 mouse assessed as reduction of 11-dehydro-TXB2 level in urine at 20 mg/kg, po administered 3 days measured for 24 hrs post third dose relative to vehicle-treated control; format: functional; set-up: scale not given: the % may be the effect or the level left

## Cc1onc(-c2ccc(Cl)o2)c1-c1ccc(F)cc1
[1]
  IC50: 17.2 µM
[2]
  Ratio IC50: 9.05

## Cc1onc(C2CCCO2)c1-c1ccccc1 (stereo unspecified)
[1]
  IC50: > 100 µM
[3]
  IC50: > 100 µM

## Cc1onc(-c2ccccc2Cl)c1-c1ccccc1
[1]
  IC50: 1.1 µM
[2]
  Ratio IC50: 4.07
[3]
  IC50: 0.27 µM

## O=C(O)c1c(-c2ccccc2)noc1-c1ccccc1
[1]
  IC50: > 100 µM
[3]
  IC50: > 100 µM

## CC(=O)OCc1onc(-c2ccc(Cl)o2)c1-c1ccccc1
[4]
  inhibition: 62%
[5]
  inhibition: Active
[6]
  inhibition: 97%
[7]
  inhibition: Active
[8]
  IC50: 20 µM
[9]
  inhibition: 40%
[2]
  Ratio IC50: > 20
[10]
  inhibition: Active
[11]
  IC50: 23 µM
[3]
  IC50: 5 µM
[12]
  inhibition: > 90%
[13]
  inhibition: inactive

## O=C(O)c1onc(-c2ccc(Cl)o2)c1-c1ccccc1
[1]
  IC50: > 100 µM
[3]
  IC50: > 100 µM

## O=C(O)c1c(-c2ccc(Cl)o2)noc1-c1ccccc1
[1]
  IC50: > 100 µM
[3]
  IC50: > 100 µM

## Cc1onc(-c2ccc(Cl)o2)c1-c1ccccc1
[8]
  IC50: 12 µM
[14]
  Activity: 95.7%
[11]
  IC50: 18.6 µM

## O=C(OCCCO[N+](=O)[O-])c1onc(-c2ccc(Cl)o2)c1-c1ccccc1
[1]
  IC50: > 100 µM
[3]
  IC50: > 100 µM

## OCc1onc(-c2ccc(Cl)o2)c1-c1ccccc1
[1]
  IC50: > 100 µM
[2]
  Ratio IC50: > 23.8

## CC(=O)Oc1ccccc1C(=O)O [ASPIRIN]
[15]
  inhibition: Active
[10]
  inhibition: Active
[16]
  inhibition: Active
Mus musculus [17]
  Activity: 70%
[12]
  inhibition: > 90%
Homo sapiens
  Activity: 70%

## COC(=O)c1onc(-c2ccc(Cl)o2)c1-c1ccccc1
[1]
  IC50: > 100 µM
[2]
  Ratio IC50: > 5.21
[3]
  IC50: 19.2 µM

## Cc1onc(-c2ccco2)c1-c1ccccc1
[1]
  IC50: 20.4 µM
[2]
  Ratio IC50: 9.29
[3]
  IC50: 2.2 µM

## Cc1onc(-c2ccc(Br)o2)c1-c1ccccc1
[18]
  inhibition: 96.3%
[19]
  inhibition: inactive
[15]
  inhibition: Active
[1]
  IC50: 34 µM
[20]
  inhibition: inactive
[8]
  IC50: 3.4 µM
  inhibition: Dose-dependent effect
[21]
  inhibition: Active
[14]
  Activity: 96.1%
[22]
  inhibition: Dose-dependent effect
[2]
  Ratio IC50: 103
[10]
  inhibition: Active
[16]
  inhibition: Active
[11]
  IC50: 7.6 µM
  inhibition: Dose-dependent effect
[3]
  IC50: 0.33 µM
[12]
  inhibition: > 90%
[13]
  inhibition: 70%
[23]
  inhibition: 78%

## Cc1onc(-c2ccc(Cl)o2)c1-c1ccccc1F
[2]
  Ratio IC50: > 52.6

## Cc1ccc(-c2noc(C)c2-c2ccccc2)o1
[18]
  inhibition: 97.8%
[19]
  inhibition: inactive
[15]
  inhibition: Active
[1]
  IC50: 68.2 µM
[20]
  inhibition: inactive
[8]
  IC50: 4.3 µM
  inhibition: Dose-dependent effect
[14]
  Activity: 94.7%
[22]
  inhibition: Dose-dependent effect
[2]
  Ratio IC50: 213
[10]
  inhibition: Active
[24]
  inhibition: Active
[16]
  inhibition: Active
[11]
  IC50: 7.4 µM
  inhibition: Dose-dependent effect
[3]
  IC50: 0.32 µM
[12]
  inhibition: > 90%
[13]
  inhibition: 70%
[23]
  inhibition: 66%

## Cc1onc(-c2cccc(Cl)c2)c1-c1ccccc1
[1]
  IC50: 0.27 µM
[2]
  Ratio IC50: 0.21
[3]
  IC50: 1.3 µM

## FC(F)(F)c1onc(-c2ccc(Cl)o2)c1-c1ccccc1
[18]
  inhibition: 99.2%
[19]
  inhibition: inactive
Mus musculus [25]
  Activity: inactive
[15]
  inhibition: Active
[20]
  inhibition: inactive
[8]
  IC50: 3.7 µM
  inhibition: Dose-dependent effect
[9]
  inhibition: 49%
[21]
  inhibition: Active
[14]
  Activity: 94.3%
[22]
  inhibition: Dose-dependent effect
[2]
  Ratio IC50: > 123
[10]
  inhibition: Active
[16]
  inhibition: Active
[11]
  IC50: 10 µM
  inhibition: Dose-dependent effect
Mus musculus [26]
  Activity: 70%
[12]
  inhibition: > 90%
[13]
  inhibition: 70%
[23]
  inhibition: 72%

## CC(=O)/C(=C(\N)c1ccco1)c1ccccc1
[1]
  IC50: > 100 µM
[2]
  Ratio IC50: > 2.7
[3]
  IC50: 37 µM

## O=C(OCCCN1CCOCC1)c1onc(-c2ccc(Cl)o2)c1-c1ccccc1
[1]
  IC50: > 100 µM
[3]
  IC50: > 100 µM

## CC(=O)/C(=C(\N)c1ccc(Cl)o1)c1ccccc1
[1]
  IC50: > 100 µM
[3]
  IC50: > 100 µM

## COC(=O)c1c(-c2ccccc2)noc1-c1ccccc1
[1]
  IC50: > 100 µM
[2]
  Ratio IC50: > 5.79
[3]
  IC50: 17.3 µM

## CC(C)Cc1ccc(C(C)C(=O)O)cc1 (stereo unspecified)
[5]
  inhibition: Active
[12]
  inhibition: > 90%

## COC(=O)c1c(-c2ccc(Cl)o2)noc1-c1ccccc1
[1]
  IC50: > 100 µM
[2]
  Ratio IC50: > 5.75
[3]
  IC50: 17.4 µM
